What all share (assay): NCI anticancer screen, dose series, 48 h
The test system of assay [1] is HCT-116.
Assay [2] has as its system COLO 205.
Assay [3] relates to OVCAR-3.
The subject of assay [4] is 786-0.
The test system of assay [5] is SW-620.
For assay [6], the system named is HL-60.
In assay [7] the test system is LOX IMVI.
Assay [8] relates to NCI-H226.
Assay [9] concerns SF-268.
Assay [10] deals with HT-29.
For assay [11], the system named is OVCAR-4.
Assay [12] deals with UACC-257.
Assay [13] concerns RXF 393.
Assay [14] has as its system CAKI-1.
Assay [15] concerns UO-31.
Assay [16] deals with RPMI-8226.
The test system of assay [17] is HCT-15.
In assay [18] the test system is NCI-H460.
The subject of assay [19] is PC-3.
Assay [20] relates to DU-145.

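Values below derive from 48-hour exposures of cells grown in 96-well plates, with endpoints linearly interpolated between the two concentrations bracketing the appropriate inhibition level. At the GI50, growth is halved.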 Activity calls are given as the source filed them. No stated cut-off is given here; in the data, active = GI50 up to about 1.1 µM and inactive = higher.

Consider `O=[N+]([O-])c1cccnc1S(=O)(=O)c1ccccc1`, for which the GI50 is 6.93 µM (inactive) in assay [1]; 5.97 µM (inactive) in assay [2]; 2.01 µM (inactive) in assay [3]; 2.48 µM (inactive) in assay [4]; 3.27 µM (inactive) in [5]; 2.49 µM (inactive) in assay [6]. Further, the GI50 was 4.46 µM (inactive) in assay [7]; 15.8 µM (inactive) in assay [8]; 10.5 µM (inactive) in assay [9]; 6.41 µM (inactive) in assay [10]; 6.47 µM (inactive) in assay [11]; 17.4 µM (inactive) in assay [12]. In addition, the GI50 is 1.99 µM (inactive) in [13]; 2.9 µM (inactive) in assay [14]; 6.52 µM (inactive) in assay [15]; 8.71 µM (inactive) in assay [16]; 7.55 µM in assay [17]; 13.9 µM (inactive) in [18].
Turning to `O=c1c(S(=O)(=O)Oc2ccccc2)coc2cc(F)ccc12`, the GI50 in [1] was > 100 µM (inactive); in assay [3], > 100 µM (inactive); in assay [4], > 100 µM (inactive); in [5], > 100 µM (inactive); in assay [7], > 100 µM (inactive); in assay [8] it was 17.4 µM (inactive). Besides, the GI50 was > 100 µM (inactive) in [9]; > 100 µM (inactive) in assay [19]; > 100 µM (inactive) in assay [10]; > 100 µM (inactive) in [11]; > 100 µM (inactive) in [12]; 36.1 µM (inactive) in [13]. In addition, the GI50 in assay [14] is > 100 µM (inactive); in assay [15], 46.8 µM (inactive); in [17], over 100 µM; in [18] it was > 100 µM (inactive).
Turning to `COC(=O)N/N=C(\C)C(CN1CCCCC1)C(C1=C(O)c2ccccc2OC1)c1ccccc1` (stereo not given), the GI50 in assay [1], in [2], in [3], in [4], in assay [5] and in assay [6] was > 100 µM (inactive) each time. In addition, the GI50 in assay [7], in assay [8], in assay [9], in assay [10], in assay [11] and in assay [12] was > 100 µM (inactive) in each case. Moreover, the GI50 in assay [13] is 17.9 µM (inactive); in assay [14], > 100 µM (inactive); in assay [15], 72.4 µM (inactive); in assay [16], > 100 µM (inactive); in [17] it was over 100 µM; in assay [18], > 100 µM (inactive).
With `Cc1cc(N(CCC#N)S(=O)(=O)c2ccccc2)ccc1/C=C1\N=C(c2ccc(Cl)cc2)OC1=O`, the GI50 in assay [1], in assay [2], in assay [3], in assay [4], in assay [5] and in [6] was > 100 µM (inactive) each time. Further, the GI50 in assay [7] is > 100 µM (inactive); in assay [8] it was 38.1 µM (inactive); in [9] it was > 100 µM (inactive); in assay [10] it was > 100 µM (inactive); in [11], > 100 µM (inactive); in assay [12], > 100 µM (inactive). The GI50 in [13] is > 100 µM (inactive); in assay [14], > 100 µM (inactive); in assay [15], > 100 µM (inactive); in assay [16], > 100 µM (inactive); in [17], over 100 µM; in assay [18] it was > 100 µM (inactive).
For the compound `CCOC(=O)c1c(SC(=O)C(C)(C)Oc2ccc(Cl)cc2)n(-c2ccccc2)c(=S)n(-c2ccccc2)c1=O`, the GI50 in assay [1] was 22.4 µM (inactive); in assay [2], 20.7 µM (inactive); in [3], 32.1 µM (inactive); in assay [4], 27.6 µM (inactive); in assay [5] it was 22.6 µM (inactive); in assay [6] it was 19.5 µM (inactive). Moreover, the GI50 in [7] was 31.8 µM (inactive); in assay [8], 40 µM (inactive); in assay [9] it was 20.2 µM (inactive); in [10], 27.4 µM (inactive); in [20] it was 45.2 µM (inactive); in assay [11] it was 34.4 µM (inactive). Also, the GI50 is > 100 µM (inactive) in assay [12]; 25.1 µM (inactive) in [13]; > 100 µM (inactive) in assay [14]; 60.4 µM in assay [17]; 22.1 µM (inactive) in [18].
Consider `C[n+]1c2ccccc2cc2c(CNC(CCCNC(=N)N)C(=O)O)cccc21` (stereo not given), for which the GI50 in assay [1] was 0.301 µM (active); in [2], 0.248 µM (active); in assay [3], 2 µM (inactive); in assay [4] it was 0.75 µM (active); in assay [5] it was 0.378 µM (active); in assay [6], 0.149 µM (active). The GI50 was 0.493 µM (active) in [7]; 3.05 µM (inactive) in [8]; 0.244 µM (active) in [9]; 0.303 µM (active) in [10]; 11.4 µM (inactive) in [11]; 0.638 µM (active) in assay [12]. Further, the GI50 in [13] is 0.0458 µM (active); in assay [14] it was 0.518 µM (active); in assay [15], 0.959 µM (active); in assay [16], 0.0682 µM (active); in assay [17] it was 0.394 µM; in assay [18] it was 1.9 µM (inactive).
Consider `O=C(Nc1ccn(CCI)c(=O)n1)c1ccccc1`, for which the GI50 in assay [1], in assay [2], in assay [3], in [4], in [5] and in assay [6] was > 100 µM (inactive) in each case. In addition, the GI50 in [7], in assay [8], in [9], in assay [10], in [11] and in assay [12] was > 100 µM (inactive) each time. The GI50 in assay [13] was > 100 µM (inactive); in assay [14] it was > 100 µM (inactive); in [15], > 100 µM (inactive); in assay [16], > 100 µM (inactive); in [17], over 100 µM; in assay [18], > 100 µM (inactive).
`CC(O)C(N/C=C1/N=C(c2ccccc2)OC1=O)C(=O)O` (stereo not given): the GI50 was > 100 µM (inactive) in [1]; > 100 µM (inactive) in assay [2]; > 100 µM (inactive) in [3]; > 100 µM (inactive) in assay [4]; > 100 µM (inactive) in assay [5]; 10 µM (inactive) in [6]. For the same compound, the GI50 in assay [7], in assay [8], in [9], in assay [10], in assay [11] and in assay [12] was > 100 µM (inactive) throughout. Further, the GI50 in [13] was > 100 µM (inactive); in assay [14], > 100 µM (inactive); in assay [15], > 100 µM (inactive); in assay [16], > 100 µM (inactive); in assay [17], 10 µM; in [18], > 100 µM (inactive).
For `CSc1nc(O)c2cn(Cc3ccccc3)nc2n1`, the GI50 in assay [1], in [2], in [3], in assay [4], in assay [5] and in assay [6] was > 100 µM (inactive) each time. Further, the GI50 in assay [7] is > 100 µM (inactive); in [8], > 100 µM (inactive); in assay [9], > 100 µM (inactive); in assay [10], 98.2 µM (inactive); in assay [11] it was > 100 µM (inactive); in assay [12] it was > 100 µM (inactive). Besides, the GI50 in assay [13] is > 91 µM (inactive); in [14], 41 µM (inactive); in assay [15], > 87.3 µM (inactive); in assay [16], > 100 µM (inactive); in [17], over 75.3 µM; in [18], > 100 µM (inactive).
Regarding `COC(=O)C(C(=O)C(=O)Nc1ccccc1OC)c1csc(-n2nc(-c3ccccc3)cc2-c2ccccc2)n1` (stereo not given), the GI50 in assay [1], in assay [2], in assay [3], in assay [4], in [5] and in assay [6] was > 100 µM (inactive) in each case. In addition, the GI50 in assay [7] was > 100 µM (inactive); in [8] it was > 100 µM (inactive); in [9], > 100 µM (inactive); in [10], 59.3 µM (inactive); in assay [11], > 100 µM (inactive); in [12], > 100 µM (inactive). In addition, the GI50 in assay [13] is 89.5 µM (inactive); in assay [14], > 100 µM (inactive); in [15], 54.7 µM (inactive); in [16] it was > 100 µM (inactive); in [17], over 100 µM; in assay [18], > 100 µM (inactive).
On to `COCOC1CCCC[C@@]1(OCCOCCO[C@@]1(c2ccccc2)CCCC[C@H]1OCOC)c1ccccc1` (stereo not given in full), for which the GI50 in assay [1] was > 100 µM (inactive); in assay [2], > 100 µM (inactive); in assay [3], > 100 µM (inactive); in [4], 46.6 µM (inactive); in [5] it was > 100 µM (inactive); in assay [6], > 100 µM (inactive). Further, the GI50 in assay [7], in [8], in [9], in assay [10], in assay [11] and in assay [12] was > 100 µM (inactive) in each case. Further, the GI50 in assay [13] was 23.1 µM (inactive); in [14], 41.1 µM (inactive); in [15], > 100 µM (inactive); in assay [16] it was > 100 µM (inactive); in assay [17] it was over 10 µM; in assay [18], > 100 µM (inactive).

Source of the values: ChEMBL document CHEMBL1201862, “PubChem BioAssay data set” (2004).
